In patent publication US10538547B2, “Mangiferin-6-O-calcium salt and preparation process thereof” (CHANGZHOU DEZE MEDICAL SCIENCE CO., LTD, priority 2016, dated 2020):
Structures can show the parent of a compound that is named as a salt.

Columns and labels:
[1] = Room temperature long-term stability test; type: physicochemical; settings: for Content / Morphology: 25°C±2°C, 60% RH±5% RH, sealed aluminum plastic bag
Method: (§1) Test method: A sample of the mangiferin-6-O-calcium salt raw material was sealingly packaged with an aluminum plastic composition bag, placed at 25° C.±2° C. and 60% RH±5% RH conditions, pieces of the sample were taken at the time of 0, 3, 6, 9 and 12 months and the morphology and content thereof were tested.

[2] = Acceleration test (accelerated stability); type: physicochemical; settings: for Content / Morphology: 40°C±2°C, 75% RH±5% RH, sealed aluminum plastic bag
Method: as §1, with “40°” for “25°”, “75%” for “60%”, “3” for “3, 6, 9”, “6” for “12”

[3] = Physicochemical properties: solubility of the mangiferin-6-O-calcium salt
Text: The mangiferin-6-O-calcium salt has the following structural formula: […]

## O=c1c2cc(O)c(O)cc2oc2cc(O)c(C3OC(CO)C(O)C(O)C3O)c(O)c12 (stereo not drawn) [mangiferin-6-O-calcium salt]
[1]; batch 140618, 0 month
  Content: 84.5%
  Morphology: Light yellow-green
[1]; batch 140618, 3 months
  Content: 84.5%
  Morphology: Light yellow-green
[1]; batch 140618, 6 months
  Content: 84.3%
  Morphology: Light yellow-
[1]; batch 140618, 9 months
  Content: 84.6%
  Morphology: Light yellow-
[1]; batch 140618, 12 months
  Content: 84.2%
  Morphology: Light yellow-
[1]; room temperature condition for 12 months
  Stability conclusion, room temperature: stable properties
[2]; batch 140618, 0 month
  Content: 84.5%
  Morphology: Light yellow-
[2]; batch 140618, 3 months
  Content: 84.5%
  Morphology: Light yellow-
[2]; batch 140618, 6 months
  Content: 84.2%
  Morphology: Light yellow-
[2]; acceleration test condition for 6 months
  Stability conclusion, acceleration test: stable properties
[3]; diluted hydrochloric acid solution
  Solubility in diluted hydrochloric acid solution: slightly soluble
[3]; hot water
  Solubility in hot water: soluble
[3]; water
  Solubility in water: slightly soluble
